Blank lines part the entries; values can stand above or below the molecule they belong to.
Experiments:
GPR119 [1] = molecular target: T1, GPR119 (Homo sapiens, UniProt Q8TDV5); assay: cAMP Accumulation Assay (GPR119 CRE-bla CHO-K1 cells, LiveBLAzer-FRET B/G); format: cell-based; settings: (Emax of the test compound/Emax of MBX-2982)x100, 5 hours incubation
T1 construct: host or cells: CHO-K1 (GPR119 CRE-bla, doxycycline-induced)
T1 sequence (Q8TDV5 1-335): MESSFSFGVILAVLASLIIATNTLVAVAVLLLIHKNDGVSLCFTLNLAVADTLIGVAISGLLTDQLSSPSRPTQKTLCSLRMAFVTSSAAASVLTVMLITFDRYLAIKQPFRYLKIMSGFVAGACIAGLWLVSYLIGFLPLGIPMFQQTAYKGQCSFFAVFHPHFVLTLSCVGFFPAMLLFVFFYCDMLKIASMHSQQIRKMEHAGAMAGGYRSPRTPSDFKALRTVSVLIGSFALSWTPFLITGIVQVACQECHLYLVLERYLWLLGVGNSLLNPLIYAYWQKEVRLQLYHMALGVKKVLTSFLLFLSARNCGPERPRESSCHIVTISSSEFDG

GPR119 [2] = molecular target: T1, GPR119; assay: as above; format: cell-based; settings: for EC50: 5 hours incubation; for Emax (Fold): maximum activity, response ratio versus non-treated control group
male C57BL/6 mice = assay: Oral Glucose Tolerance Test (OGTT); format: in vivo; parameters: concentration or dose not given beside the values; settings: fasted male C57BL/6 mice, oral administration 30 minutes before oral glucose; AUCglucose 0-120 minutes versus negative control group
Procedure: The oral glucose tolerance test of the compounds according to the present invention was carried out according to the procedures disclosed in Andrikopoulos S, Blair A R, Deluca N, Fam B C, Proietto J, Am J Physiol Endocrinol Metab. 2008, Vol 295, E1323-1332. Briefly, male C57BL/6 mice at 8 to 9 weeks of age having 20 g to 25 g of body weight (Orient Bio Inc. Korea) were allowed to acclimatize to the surroundings (temperature: 20±2° C., humidity: 40-60%, light/dark cycle: 12 hours) for 1 week. During the acclimatization, the mice were given ad libitum access to feed and water. The mice were fasted from 18 hours before the test, except for allowing free access to water. After measuring the mice′ body weights and blood sugar levels, they were divided into test groups so as to have similar blood sugar levels. The mice were orally administered with a mixture of test compound and the diluent (0.5% solution of MC1500 (Sigma)). At 30 minutes after the administration, the mice were also orally administered with 20% glucose solution in an amount of 0.1 ml per 10 g of body weight. The blood samples were taken from the tail vain at 0 (right before the administration of the glucose solution), 15, 30, 60, 90, and 120 minutes after the administration of the glucose solution; and the blood sugar levels thereof were measured with a blood glucose test meter (GlucoDr. AGM-3000, All Medicus Co. Ltd.). The graph for blood sugar level on time for each test compound was plotted from the respective blood sugar values; and then area under the curve (AUCglucose) was determined. The inhibition rate of blood sugar (%) was calculated from the following formula. Inhibition rate of blood sugar (%)=[(AUCglucose of the negative control group−AUCglucose of the test group)/AUCglucose of the negative control group]×100

SMILES: CCc1cnc(N2CCN(c3ncc(-c4ccc(-n5cnn([C@@H]6CCOC6)c5=O)cc4)cc3C#N)CC2)nc1 [Example 41, (R)-2-(4-(5-ethylpyrimidin-2-yl)piperazin-1-yl)-5-(4-(5-oxo-1-(tetrahydrofuran-3-yl)-1H-1,2,4-triazol-4(5H)-yl)phenyl)nicotinonitrile]
Emax (% RR) (GPR119 [1]): 113.4 % RR
EC50 (GPR119 [2]): 5 nM
Emax (Fold) (GPR119 [2]): 3.1 Fold
Inhibition rate of blood sugar (%) (male C57BL/6 mice): 18.8%

SMILES: CCc1cnc(N2CCN(c3ncc(-c4ccc(-n5cnn(CCN6CCCC6)c5=O)c(F)c4)cc3C#N)[C@@H](C)C2)nc1 [Example 14]
Emax (% RR) (GPR119 [1]): 125.1 % RR
EC50 (GPR119 [2]): 14.8 nM
Emax (Fold) (GPR119 [2]): 3.3 Fold
Inhibition rate of blood sugar (%) (male C57BL/6 mice): 18.6%

SMILES: CCc1cnc(N2CCN(c3ncc(-c4ccc(-n5cnn(CCOC)c5=O)cc4)cc3C#N)CC2)nc1 [Example 40, 2-(4-(5-ethylpyrimidin-2-yl)piperazin-1-yl)-5-(4-(1-(2-methoxyethyl)-5-oxo-1H-1,2,4-triazol-4(5H)-yl)phenyl)nicotinonitrile]
Emax (% RR) (GPR119 [1]): 112.1 % RR
EC50 (GPR119 [2]): 9 nM
Emax (Fold) (GPR119 [2]): 3.1 Fold
Inhibition rate of blood sugar (%) (male C57BL/6 mice): 17.2%

SMILES: CCc1cnc(N2CCN(c3ncc(-c4ccc(-n5cnn(CCN6CCOCC6)c5=O)c(F)c4)cc3C#N)[C@@H](C)C2)nc1 [Example 15, (S)-2-(4-(5-ethylpyrimidin-2-yl)-2-methylpiperazin-1-yl)-5-(3-fluoro-4-(1-(2-morpholinoethyl)-5-oxo-1H-1,2,4-triazol-4(5H)-yl)phenyl)nicotinonitrile]
Emax (% RR) (GPR119 [1]): 124.5 % RR
EC50 (GPR119 [2]): 5 nM
Emax (Fold) (GPR119 [2]): 3.5 Fold
Inhibition rate of blood sugar (%) (male C57BL/6 mice): 21.7%

SMILES: C[C@H]1CN(C(=O)OC(C)(C)C)CCN1c1ncc(-c2ccc(-n3cnn(C)c3=O)c(F)c2)cn1 [Example 1, (S)-tert-butyl 4-(5-(3-fluoro-4-(1-methyl-5-oxo-1H-1,2,4-triazol-4(5H)-yl)phenyl)pyrimidin-2-yl)-3-methylpiperazin-1-carboxylate]
Emax (% RR) (GPR119 [1]): 123.9 % RR
EC50 (GPR119 [2]): 59 nM
Emax (Fold) (GPR119 [2]): 2.9 Fold
Inhibition rate of blood sugar (%) (male C57BL/6 mice): 22.3%

The next lines start with results.

Emax (% RR) (GPR119 [1]): 120.0 % RR
EC50 (GPR119 [2]): 36 nM
Emax (Fold) (GPR119 [2]): 3.5 Fold
SMILES: CC(C)c1nc(C2CCN(c3ncc(-c4ccc(-n5cnn([C@@H]6CCOC6)c5=O)cc4)cc3C#N)CC2)no1 [Example 70, (R)-2-(4-(5-isopropyl-1,2,4-oxadiazol-3-yl)piperidin-1-yl)-5-(4-(5-oxo-1-(tetrahydrofuran-3-yl)-1H-1,2,4-triazol-4(5H)-yl)phenyl)nicotinonitrile]
Inhibition rate of blood sugar (%) (male C57BL/6 mice): 25.2%

Emax (% RR) (GPR119 [1]): 126.7 % RR
EC50 (GPR119 [2]): 16 nM
Emax (Fold) (GPR119 [2]): 3.7 Fold
SMILES: COCCn1ncn(-c2ccc(-c3cnc(N4CCC(c5noc(C(C)C)n5)CC4)c(C#N)c3)cc2)c1=O [Example 69, 2-(4-(5-isopropyl-1,2,4-oxadiazol-3-yl)piperidin-1-yl)-5-(4-(1-(2-methoxyethyl)-5-oxo-1H-1,2,4-triazol-4(5H)-yl)phenyl)nicotinonitrile]
Inhibition rate of blood sugar (%) (male C57BL/6 mice): 25.8%

Emax (% RR) (GPR119 [1]): 141.6 % RR
EC50 (GPR119 [2]): 12 nM
Emax (Fold) (GPR119 [2]): 3.2 Fold
SMILES: CC(C)c1nc(N2CCN(c3ncc(-c4ccc(-n5cnn([C@H]6CCOC6)c5=O)c(F)c4)cc3C#N)CC2)no1 [Example 47, (S)-5-(3-fluoro-4-(5-oxo-1-(tetrahydrofuran-3-yl)-1H-1,2,4-triazol-4(5H)-yl)phenyl)-2-(4-(5-isopropyl-1,2,4-oxadiazol-3-yl)piperazin-1-yl)nicotinonitrile]
Inhibition rate of blood sugar (%) (male C57BL/6 mice): 32.7%

From patent US9663495B2 (YUHAN CORPORATION, priority 2013, dated 2017)
